# Results as given in US6331555A, “Treatment of platelet derived growth factor related disorders such as cancers” (priority 1999, dated 2001).
# “And” between values parts separate entries of the source, which are not always exact repeats. Identical values can stand only once. Like-named read-outs stand apart in the source and are kept apart here.
# Tests used:
# FLK-1 = target: T1, FLK-1 (Mus musculus, UniProt P35918); test: Receptor tyrosine kinase inhibition, FLK-1; format: cell-based; conditions: read-out: FLK-1 IC50
# T1 construct: expressed in transfected cells; host or cells: NIH3T3 mouse fibroblasts, retroviral vector
# Procedure: (§1) For western blotting, cells were plated in 2 mL growth medium into 6-well dishes (500,000 cells per well) and allowed to attach overnight. The medium was replaced with 2 mL MCDB 105 (UCSF Cell Culture Facility) supplemented with 1% FBS. The plates were then incubated overnight at 37° C., ambient CO2. […] After a 7 min incubation at room temperature with ligand, the plates were put on ice and washed three times with 1 mL ice-cold PBS plus 1 mM orthovanadate. Lysis was achieved by pipetting cells in 0.5 mL of buffer containing 50 mM Tris, pH 7.4, 10% glycerol, 1% NP-40, 2 mM EDTA, 1 mM sodium vanadate (Na3 VO4), 10 mM pyrophosphate, 1 mM PMSF, […]. A 300 μL aliquot of each lysate was immediately added to 100 μL 4×Laemmli sample buffer ([…] Tris pH 6.9, 20% glycerol, 7% SDS, 5 mM EDTA, 5% β-mercaptoethanol) containing phosphatase inhibitors, 2 mM Na3 VO4 and 10 mM pyrophosphate. Samples were boiled for 5 min, frozen in dry ice-ethanol, and stored at -80° C. Proteins were resolved by SDS-PAGE (Bio-Rad Miniprotean II) and transferred to nitrocellulose membrane (Schleicher & Schuell) at 120 volts for 1 hr at room temperature in buffer containing 25 mM Tris pH 8.3, 20% methanol, 0.2 M glycine, 0.1% SDS. The integrity of the protein-to-membrane transfer was determined by staining with 1% Ponceau S in 5% acetic acid for 5 min. After destaining in several distilled water rinses, the membrane was soaked overnight in blocking buffer containing 5% milk in Tris-buffered saline, 0.05% Tween 20. Phosphotyresine was detected by incubating the membrane (1 hr at room temperature) with an anti-phosphotyosine antiserum diluted in blocking buffer at 1:3000. For C6 cells, PDGF-β receptor content in the lysates was confirmed in duplicate sample lanes by western blotting using an antibody specific for PDGF-β receptor (UBI). The antibodies were visualized using ECL reagent from Amersham and by exposure to Fuji RX film.
# (§2) For ELISA assays, cells were grown to 80-90% confluency in growth medium and seeded in 96-well tissue culture plates in 0.5% serum at 25,000 to 30,000 cells per well. After overnight incubation in 0.5% serum-containingmedium, cells were changed to serum-free medium and treated with test compound for 2 hr in a 5% CO2, 37° C. incubator. Cells were then stimulated with ligand for 5-10 min followed by lysis with HNTG (20 mM Hepes, 150 mM NaCl, 10% glycerol, 5 mM EDTA, 5 mM Na3 VO4 0.2% Triton X-100, and 2 mM NaPyr). Cell lysates (0.5 mg/well in PBS) were transferred to ELISA plates previously coated with receptor-specific antibody and which had been blocked with 5% milk in TBST (50 mM Tris-HCl pH 7.2, 150 mM NaCl and 0.1% Triton X-100) at room temperature for 30 min. Lysates were incubated with shaking for 1 hr at room temperature. The plates were washed with TBST four times and then incubated with polyclonol anti-phosphotyrosine antibody at room temperature for 30 min. Excess anti-phosphotyrosine antibody was removed by rinsing the plate with TBST four times. Goat anti-rabbit IgG antibody was added to the ELISA plate for 30 min at room temperature followed by rinsing with TBST four more times.
# (§3) The ability of different compound to inhibit different receptor tyrosine kinases was tested.
# PDGFR [1] = target: T2, PDGFR (Homo sapiens, UniProt P09619); test: Receptor tyrosine kinase inhibition, PDGFR; format: cell-based; parameters: U1242 (PDGF-β receptor); host or cells: U1242 glioma cells (ELISA); conditions: read-out: PDGFR IC50
# Procedure: as §1, with “The medium was replaced with 2 mL MCDB 105 (UCSF Cell Culture Facility) supplemented with 1% FBS.” left out, “Proteins were resolved by SDS-PAGE (Bio-Rad Miniprotean II) and transferred to nitrocellulose membrane (Schleicher & Schuell) at 120 volts for 1 hr at room temperature in buffer containing 25 mM Tris pH 8.3, 20% methanol, 0.2 M glycine, 0.1% SDS.” left out, “For C6 cells, PDGF-β receptor content in the lysates was confirmed in duplicate sample lanes by western blotting using an antibody specific for PDGF-β receptor (UBI).” left out
# (§4) For ELISA assays, cells were grown to 80-90% confluency in growth medium and seeded in 96-well tissue culture plates in 0.5% serum at 25,000 to 30,000 cells per well. After overnight incubation in 0.5% serum-containingmedium, cells were changed to serum-free medium and treated with test compound for 2 hr in a 5% CO2, 37° C. incubator. […] Lysates were incubated with shaking for 1 hr at room temperature. The plates were washed with TBST four times and then incubated with polyclonol anti-phosphotyrosine antibody at room temperature for 30 min. Excess anti-phosphotyrosine antibody was removed by rinsing the plate with TBST four times. Goat anti-rabbit IgG antibody was added to the ELISA plate for 30 min at room temperature followed by rinsing with TBST four more times.
# as §3
# EGFR = target: T3, EGFR (Homo sapiens, UniProt P00533); test: Receptor tyrosine kinase inhibition, EGFR; format: cell-based; conditions: for IC50: read-out: EGFR ID50
# T3 construct: expressed in transfected cells; host or cells: NIH3T3 mouse fibroblasts, retroviral vector
# Procedure: as §1, §2, §3
# HER2 = test: Receptor tyrosine kinase inhibition, HER2; format: cell-based; conditions: for IC50: read-out: HER2 IC50
# Procedure: as §1, §2, §3
# C6 cells = test: C6 SRB growth assay; format: cell-based, rat; conditions: Rattus norvegicus, C6; read-out: C6 SRB IC50
# PDGF-R (U1242) = target: T4, PDGF-R (U1242) (Homo sapiens, UniProt P09619); test: U1242 kinase (PDGF-R activity); format: cell-based
# T4 construct: U1242 (PDGF-β receptor); host or cells: U1242 MG glioma cells
# Procedure: as §1, with “The medium was replaced with 2 mL MCDB 105 (UCSF Cell Culture Facility) supplemented with 1% FBS.” left out, “Proteins were resolved by SDS-PAGE (Bio-Rad Miniprotean II) and transferred to nitrocellulose membrane (Schleicher & Schuell) at 120 volts for 1 hr at room temperature in buffer containing 25 mM Tris pH 8.3, 20% methanol, 0.2 M glycine, 0.1% SDS.” left out, “For C6 cells, PDGF-β receptor content in the lysates was confirmed in duplicate sample lanes by western blotting using an antibody specific for PDGF-β receptor (UBI).” left out
# as §4
# PDGF-R activity, C6 SRB, and in vivo efficacy were measured using the procedures described in the appendices above.
# PDGFR [2] = target: T2, PDGFR; test: PDGF-stimulated receptor phosphorylation in U1242 cells, ELISA; format: cell-based; parameters: U1242 (PDGF-β receptor); host or cells: U1242 MG glioma cells; conditions: 100 ng/ml PDGF-BB; read-out: ELISA P-TYR U1242 IC50
# Procedure: as §2, with “Cell lysates (0.5 mg/well in PBS) were transferred to ELISA plates previously coated with receptor-specific antibody and which had been blocked with 5% milk in TBST (50 mM Tris-HCl pH 7.2, 150 mM NaCl and 0.1% Triton X-100) at room temperature for 30 min.” left out
# U1242 MG cells were plated in 96-well plates at a concentration of 5×10^4 cells/well in cultured media containing 0.5% FBS. The cells were incubated for 24 hours. The cells were then treated with a particular compound for 2 hours followed by the addition of 100 ng/ml PDGF-BB and incubation for 10 minutes.
# Cells were lysed in 0.2 M Hepes, 0.15 M NaCl, 10% V/V glycerol, 0.04% Triton X-100, 5 mM EDTA, 5 MM Na^+ vanadate and […] Na^+ pyrophosphate. Cell lysates were then added to an ELISA plate coated with an anti-PDGF receptor antibody (Genzyme). ELISA plates were coated at […] of antibody/well in […] of PBS for 18 hours at 4° C. prior to the addition of the lysate.
# The lysate was incubated in the coated plates for 1 hour and then washed four times in TBST (35 mM Tris-HCl pH 7.0, 0.15 M NaCl, 0.1% Triton X-100). Anti-phosphotyrosine antibody ([…] in PBS) was added and the mixture was incubated for 30 minutes at room temperature. The wells were then washed four times in TBST, a secondary antibody conjugated to POD (TAGO) was added to each well, and the treated wells were incubated for 30 minutes at room temperature. The wells were then washed four times in TBST, ABTS/H2 O2 solution was added to each well and the wells were incubated for two minutes. Absorbance was then measured at 410 nm.
# PDGFR [3] = test: Receptor tyrosine kinase inhibition, PDGFR; format: cell-based
# Procedure: as §1, with “The medium was replaced with 2 mL MCDB 105 (UCSF Cell Culture Facility) supplemented with 1% FBS.” left out, “Proteins were resolved by SDS-PAGE (Bio-Rad Miniprotean II) and transferred to nitrocellulose membrane (Schleicher & Schuell) at 120 volts for 1 hr at room temperature in buffer containing 25 mM Tris pH 8.3, 20% methanol, 0.2 M glycine, 0.1% SDS.” left out, “For C6 cells, PDGF-β receptor content in the lysates was confirmed in duplicate sample lanes by western blotting using an antibody specific for PDGF-β receptor (UBI).” left out
# as §4, §3
# [4] = W = done in Western assay; read-out: PDGFR IC50 (W)
# [5] = W = done in Western assay, read-out: U1242 KINASE IC50 (W)
# T1 sequence (P35918 20-1345): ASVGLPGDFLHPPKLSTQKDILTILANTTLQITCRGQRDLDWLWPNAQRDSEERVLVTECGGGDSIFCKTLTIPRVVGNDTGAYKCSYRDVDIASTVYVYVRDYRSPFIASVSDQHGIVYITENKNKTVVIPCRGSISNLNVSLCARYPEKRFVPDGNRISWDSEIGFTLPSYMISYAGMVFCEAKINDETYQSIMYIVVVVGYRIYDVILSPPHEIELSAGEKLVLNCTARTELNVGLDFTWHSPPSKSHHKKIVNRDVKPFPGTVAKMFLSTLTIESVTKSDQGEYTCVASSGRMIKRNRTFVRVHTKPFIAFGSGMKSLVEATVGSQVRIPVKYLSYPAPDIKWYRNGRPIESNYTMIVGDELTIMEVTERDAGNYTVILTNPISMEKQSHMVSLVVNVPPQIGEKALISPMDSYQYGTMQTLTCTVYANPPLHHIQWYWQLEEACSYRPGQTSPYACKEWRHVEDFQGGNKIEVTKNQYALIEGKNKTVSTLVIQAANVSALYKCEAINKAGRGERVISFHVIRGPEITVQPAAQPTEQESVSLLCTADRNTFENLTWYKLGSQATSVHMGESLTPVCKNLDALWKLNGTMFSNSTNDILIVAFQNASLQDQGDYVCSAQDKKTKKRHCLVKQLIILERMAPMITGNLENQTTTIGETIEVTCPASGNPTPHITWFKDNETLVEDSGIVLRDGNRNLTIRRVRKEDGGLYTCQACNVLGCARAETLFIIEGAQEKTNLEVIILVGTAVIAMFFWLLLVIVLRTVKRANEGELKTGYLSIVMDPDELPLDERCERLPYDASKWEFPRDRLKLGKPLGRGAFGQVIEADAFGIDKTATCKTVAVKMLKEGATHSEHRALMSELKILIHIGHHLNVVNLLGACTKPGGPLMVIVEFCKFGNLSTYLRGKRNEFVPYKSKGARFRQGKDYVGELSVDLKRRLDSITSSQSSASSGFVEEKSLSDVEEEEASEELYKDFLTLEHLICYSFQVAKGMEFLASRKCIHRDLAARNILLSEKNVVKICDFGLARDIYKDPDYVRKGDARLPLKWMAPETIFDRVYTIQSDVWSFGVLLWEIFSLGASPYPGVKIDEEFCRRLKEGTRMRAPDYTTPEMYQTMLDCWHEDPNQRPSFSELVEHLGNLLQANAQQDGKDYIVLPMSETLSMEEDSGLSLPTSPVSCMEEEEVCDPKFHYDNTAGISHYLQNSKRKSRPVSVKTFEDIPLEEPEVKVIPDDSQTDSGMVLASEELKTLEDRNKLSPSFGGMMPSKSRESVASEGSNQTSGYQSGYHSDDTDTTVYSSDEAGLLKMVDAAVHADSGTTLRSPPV
# T4 sequence (P09619 33-1106): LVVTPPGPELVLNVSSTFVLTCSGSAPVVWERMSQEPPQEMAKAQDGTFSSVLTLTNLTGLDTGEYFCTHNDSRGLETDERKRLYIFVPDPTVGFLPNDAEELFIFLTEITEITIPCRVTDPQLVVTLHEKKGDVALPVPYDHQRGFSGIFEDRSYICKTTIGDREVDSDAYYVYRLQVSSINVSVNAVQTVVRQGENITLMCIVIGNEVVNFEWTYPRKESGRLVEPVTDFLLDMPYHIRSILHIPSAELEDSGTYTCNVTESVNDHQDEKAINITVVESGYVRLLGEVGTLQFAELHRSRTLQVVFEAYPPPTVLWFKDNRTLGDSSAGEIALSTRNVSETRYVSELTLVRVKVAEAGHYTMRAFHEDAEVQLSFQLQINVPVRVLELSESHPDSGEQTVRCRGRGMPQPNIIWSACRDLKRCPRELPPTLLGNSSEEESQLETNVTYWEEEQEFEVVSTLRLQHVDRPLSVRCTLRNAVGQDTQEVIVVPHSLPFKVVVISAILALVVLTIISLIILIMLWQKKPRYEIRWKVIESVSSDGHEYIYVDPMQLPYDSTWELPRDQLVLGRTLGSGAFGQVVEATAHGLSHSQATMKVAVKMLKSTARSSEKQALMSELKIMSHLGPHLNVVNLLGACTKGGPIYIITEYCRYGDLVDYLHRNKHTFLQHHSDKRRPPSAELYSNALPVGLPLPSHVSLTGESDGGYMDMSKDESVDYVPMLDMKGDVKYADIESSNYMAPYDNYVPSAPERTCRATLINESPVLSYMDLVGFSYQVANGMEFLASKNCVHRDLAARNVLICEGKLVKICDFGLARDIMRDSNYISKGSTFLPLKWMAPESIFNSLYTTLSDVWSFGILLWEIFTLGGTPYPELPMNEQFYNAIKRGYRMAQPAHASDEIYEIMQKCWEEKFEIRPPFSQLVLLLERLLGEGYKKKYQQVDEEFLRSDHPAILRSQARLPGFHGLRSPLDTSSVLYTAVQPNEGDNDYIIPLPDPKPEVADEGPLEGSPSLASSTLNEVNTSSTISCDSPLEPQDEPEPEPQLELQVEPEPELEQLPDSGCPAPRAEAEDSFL
# T2 sequence (P09619 33-1106): as above
# T3 sequence (P00533 25-1210): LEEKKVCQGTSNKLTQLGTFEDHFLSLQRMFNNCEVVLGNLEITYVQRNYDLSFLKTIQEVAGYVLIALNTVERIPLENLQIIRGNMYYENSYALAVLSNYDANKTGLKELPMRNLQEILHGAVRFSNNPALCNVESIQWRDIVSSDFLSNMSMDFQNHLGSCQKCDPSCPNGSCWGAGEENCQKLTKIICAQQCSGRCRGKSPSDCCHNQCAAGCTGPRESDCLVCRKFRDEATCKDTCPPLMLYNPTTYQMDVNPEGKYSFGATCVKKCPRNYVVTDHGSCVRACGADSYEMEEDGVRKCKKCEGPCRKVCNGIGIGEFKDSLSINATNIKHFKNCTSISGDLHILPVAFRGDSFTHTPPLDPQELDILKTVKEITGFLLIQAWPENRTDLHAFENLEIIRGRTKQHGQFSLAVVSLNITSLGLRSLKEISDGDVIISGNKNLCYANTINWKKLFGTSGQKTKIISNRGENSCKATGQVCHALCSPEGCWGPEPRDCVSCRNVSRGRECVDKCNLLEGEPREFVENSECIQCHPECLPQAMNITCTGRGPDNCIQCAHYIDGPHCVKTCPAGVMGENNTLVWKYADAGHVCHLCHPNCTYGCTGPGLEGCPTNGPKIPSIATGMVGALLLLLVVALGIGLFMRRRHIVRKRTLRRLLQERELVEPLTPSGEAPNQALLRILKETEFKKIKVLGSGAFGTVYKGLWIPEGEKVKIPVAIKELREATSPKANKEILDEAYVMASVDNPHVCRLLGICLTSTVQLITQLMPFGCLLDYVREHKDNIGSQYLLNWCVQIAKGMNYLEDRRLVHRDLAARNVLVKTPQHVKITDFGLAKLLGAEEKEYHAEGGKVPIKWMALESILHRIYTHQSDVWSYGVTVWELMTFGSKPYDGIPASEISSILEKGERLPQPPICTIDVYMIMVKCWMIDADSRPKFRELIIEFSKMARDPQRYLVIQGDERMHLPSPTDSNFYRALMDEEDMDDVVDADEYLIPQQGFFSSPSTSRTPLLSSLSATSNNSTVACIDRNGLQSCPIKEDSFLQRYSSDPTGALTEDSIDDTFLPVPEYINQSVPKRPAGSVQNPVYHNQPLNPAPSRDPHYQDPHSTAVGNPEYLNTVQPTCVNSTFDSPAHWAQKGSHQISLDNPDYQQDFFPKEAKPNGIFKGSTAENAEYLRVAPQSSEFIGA
Compound,IC50 (FLK-1),IC50 (EGFR),IC50 (HER2),IC50 (PDGFR [2]),IC50 (PDGFR [3]; [4]),further results
COCCCN1C(=O)SC(=Cc2ccccc2Cl)C1=O [Compound P15],> 50 µM,> 100 µM,> 50 µM,–,–,IC50 (PDGFR [1]): 46 µM
"COc1cccc(NC(=S)C(C#N)C(=O)N2CCCC2)c1 (stereo not drawn) [Compound P21, N-3-methoxyphenyl (2-cyano-2-N-pyrrolidinycarbonyl) thioacetamide]",–,–,–,–,–,IC50 (C6 cells): > 25 µM; IC50 (PDGF-R (U1242); read-out: U1242 KINASE IC50): 93 µM
COc1cc2cc(-c3ccccc3)c(Cl)nc2cc1OC [Compound G12],> 50 µM,–,–,10 µM,10 µM,EGF receptor phosphorylation (EGFR): do not effect EGF or HER2 phosphorylation; PDGF-R phosphorylation (PDGFR [3]): inhibit PDGF-R phosphorylation; HER2 phosphorylation (HER2): do not effect EGF or HER2 phosphorylation
Cc1cc2ccccc2c[n+]1[O-] [Compound P13],–,–,–,–,–,IC50 (C6 cells): > 100 µM; IC50 (PDGF-R (U1242); read-out: U1242 KINASE IC50): 1.2 µM
CC1c2nc3ccccc3c(=O)n2C(c2cccc(O)c2)N1Cc1ccccc1 (stereo not drawn) [Compound H12],–,–,–,30 µM,25 µM,IC50 (C6 cells): 19 µM; IC50 (PDGF-R (U1242); [5]): > 250 µM and 25 µM
N#CC(=Cc1ccc(O)c(O)c1)c1c(C#N)c(N)nn1-c1ccccc1 [Compound C10],–,–,–,25 µM,25 µM,"EGF receptor phosphorylation (EGFR): effects EGF-4, PDGF-R, and HER2 phosphorylation; PDGF-R phosphorylation (PDGFR [3]): effects EGF-4, PDGF-R, and HER2 phosphorylation; HER2 phosphorylation (HER2): effects EGF-4, PDGF-R, and HER2 phosphorylation"
O=C(Nc1cc(C(F)(F)F)cc(C(F)(F)F)c1)c1cccs1 [Compound P12],> 50 µM,–,> 50 µM,–,25 µM,–
CCOc1ccccc1NC(=O)C(=O)NN=Cc1ccc(O)c(O)c1 [Compound E14],> 50 µM,–,–,100 µM,10 µM,–
N#CC(=Cc1c[nH]c2ccccc12)C(N)=O [Compound D13],> 50 µM,–,–,30 µM,30 µM,–
N#CC(=Cc1ccc(O)c(O)c1)C(=O)NCc1ccc(F)cc1 [Compound P25],> 500 µM,> 100 µM,> 100 µM,–,30 µM,–
N#CC(=Cc1c[nH]c2ccccc12)c1c(C#N)c(N)nn1-c1ccccc1 [Compound D20],> 50 µM,> 50 µM,> 50 µM,–,–,IC50 (PDGFR [1]): 14 µM
"Cc1cc2ncc(-c3ccc([N+](=O)[O-])cc3)nc2cc1C [Compound G27, 2-(4-nitrophenyl) 6.7 dimethylquinoxaline]",> 50 µM,> 100 µM,> 50 µM,–,–,IC50 (PDGFR [1]): 48 µM
CN(C)CCn1cc(C=C(C#N)c2[nH]nc(N)c2C#N)c2ccccc21 [Compound D18],> 50 µM,> 50 µM,> 50 µM,–,–,IC50 (PDGFR [1]): 34 µM
N#CC(=Cc1cc(O)c(O)c(Br)c1)C(=O)NCCCNC(=O)C(C#N)=Cc1cc(O)c(O)c(Br)c1 [Compound P10],> 25 µM,31 µM,> 100 µM,–,3 µM,IC50 (C6 cells): 12 µM; IC50 (PDGF-R (U1242); [5]): 3 µM
O=[N+]([O-])c1ccc2ncc(-c3ccccc3)nc2c1 [Compound G23],325 µM,> 100 µM,> 100 µM,–,–,IC50 (PDGFR [3]; read-out: PDGFR IC50 (W); W = done in Western assay): 25 µM
Cc1cc2ncc(Nc3cccc(Br)c3)nc2cc1C [Compound G28],–,–,–,–,–,"IC50 (C6 cells): 4.5 µM; IC50 (PDGF-R (U1242); scndry, read-out: U1242 KINASE IC50 (scndry)): 16.4 µM"
c1ccc(-c2cnc3ccccc3n2)cc1 [Compound G10],> 50 µM,–,–,10 µM,10 µM,–
